This assay relates to Rat2 fibroblasts. The assay is described as follows: Time-lapse videomicroscopy random migration assay (cell speed, polarity). Format: cell-based, rat. The conditions noted are these: Rat2 cells. The method, then:
Cells adapted to microscopy media (Life Technologies, Rockville, Md.) as described above were trypsinized, counted, and resuspended in microscopy media at 7.14×10^3 cells/mL. 1.4 mL (10,000 cells) of this cell suspension was added to a ΔT dish (Bioptechs Inc., Butler, Pa.) that had previously been coated overnight with 10 μg/mL fibronectin (Becton Dickinson) at 4° C. and then blocked with lmg/mL cell-culture-grade BSA (Sigma, St. Louis, Mo.). Cells were allowed to attach and spread for 1 hour at 37° C. before movies were initiated. 10x phase contrast movies were 4.5 hours long with a frame taken every five minutes. A custom time-lapse collection script written in IPLabs was used to automate microscope and camera function. Light was shutter controlled. […] Cell paths were generated from the calculated centroid positions and parameters (speed and membrane flow) were calculated from the resulting path file. Speed was calculated using the Central Difference Method in DIAS, which is equivalent to a root mean squared calculation. […]
Rat 2 cells were exposed to 0, 5 nM, 25 nM, 50 nM, or 500 nM cytochalasin D and motility was measured. One set of cells received no cytochalasin D. Other cells received a low dose of cytochalasin D (e.g. 5 nM or 25 nM) or a high dose of cytochalasin D. (e.g. 500 nM) The motility of the treated cells was assessed using the motility assay described above.

The values below come from patent US6716597B2, “Methods and products for regulating cell motility” (priority 2000, dated 2004).

`C=C1[C@@H](C)[C@H]2[C@H](Cc3ccccc3)NC(=O)[C@]23[C@H](OC(C)=O)/C=C/[C@@](C)(O)C(=O)[C@@H](C)C/C=C/[C@H]3[C@@H]1O` [cytochalasin D, reference compound]: the cell speed result reads like this: (25 nM (low dose)) “increased”; (500 nM (high dose)) “decreased”.
